Results taken from publication PMC7182439 (Cell, 2019).

Columns and labels:
[1] = target: T1, SpCas9 (Streptococcus pyogenes, UniProt Q99ZW2); experiment: in vitro DNA cleavage assay; format: biochemical
[2] = target: T1, SpCas9; experiment: eGFP-disruption assay; format: cell-based

T1 sequence (Q99ZW2 whole entry): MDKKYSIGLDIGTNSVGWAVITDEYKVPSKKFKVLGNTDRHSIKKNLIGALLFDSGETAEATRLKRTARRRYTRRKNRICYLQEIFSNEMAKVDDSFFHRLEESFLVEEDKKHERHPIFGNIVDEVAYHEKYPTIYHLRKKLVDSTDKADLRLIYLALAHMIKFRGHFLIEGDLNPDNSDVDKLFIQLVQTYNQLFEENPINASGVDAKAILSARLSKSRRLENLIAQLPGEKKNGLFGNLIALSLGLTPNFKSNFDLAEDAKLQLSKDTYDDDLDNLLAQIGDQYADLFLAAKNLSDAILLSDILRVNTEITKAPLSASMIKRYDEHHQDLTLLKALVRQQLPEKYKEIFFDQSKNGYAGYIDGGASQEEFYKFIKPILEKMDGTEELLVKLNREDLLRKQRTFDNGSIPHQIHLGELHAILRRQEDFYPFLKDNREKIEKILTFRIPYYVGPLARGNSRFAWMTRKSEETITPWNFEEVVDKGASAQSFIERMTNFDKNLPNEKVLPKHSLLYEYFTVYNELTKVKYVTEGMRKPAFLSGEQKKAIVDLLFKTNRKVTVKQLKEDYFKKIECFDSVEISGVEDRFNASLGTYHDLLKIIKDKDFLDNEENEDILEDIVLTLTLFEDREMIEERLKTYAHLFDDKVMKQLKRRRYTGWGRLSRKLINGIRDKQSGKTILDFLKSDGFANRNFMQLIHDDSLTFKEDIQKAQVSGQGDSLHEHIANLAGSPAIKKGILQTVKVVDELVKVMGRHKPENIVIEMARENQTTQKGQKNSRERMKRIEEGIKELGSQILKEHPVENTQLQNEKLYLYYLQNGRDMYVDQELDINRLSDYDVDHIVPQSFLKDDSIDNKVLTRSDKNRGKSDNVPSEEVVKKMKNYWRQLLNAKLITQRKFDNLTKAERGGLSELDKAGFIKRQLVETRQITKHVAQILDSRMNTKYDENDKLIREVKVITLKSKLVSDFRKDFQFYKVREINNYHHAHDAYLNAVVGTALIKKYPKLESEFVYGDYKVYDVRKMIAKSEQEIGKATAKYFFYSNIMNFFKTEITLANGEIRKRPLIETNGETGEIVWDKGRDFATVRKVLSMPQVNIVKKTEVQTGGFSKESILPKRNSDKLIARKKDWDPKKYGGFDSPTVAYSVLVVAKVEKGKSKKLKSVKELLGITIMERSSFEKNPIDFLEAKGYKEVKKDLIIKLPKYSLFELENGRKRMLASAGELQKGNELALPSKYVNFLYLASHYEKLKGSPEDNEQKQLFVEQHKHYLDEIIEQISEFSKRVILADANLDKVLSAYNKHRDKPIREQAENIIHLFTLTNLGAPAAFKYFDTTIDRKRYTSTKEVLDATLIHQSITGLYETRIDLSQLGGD

Row | Structure (SMILES) | IC50 [1] [µM] | EC50 [2] [µM]
1 | Cc1ccc(S(=O)(=O)N2CC[C@@H]3[C@H](CO)Nc4ccc(-c5ccccc5F)cc4[C@@H]32)cc1 [BRD0539] | 22 | –
2 | COc1cccc(-c2ccc3c(c2)[C@H]2[C@H](CCN2C(=O)Cc2ccncc2)[C@H](CO)N3C)c1 [BRD3433] | – | 9.3
